Tests used:
p38a/MK2 = p38a/MK2 (Homo sapiens (Human), UniProt P49137+Q16539); test: p38a/MK2 biochemical assay: activation of MK2 by p38, FITC-HSP27 peptide phosphorylation (IMAP FP); details: 10-point 1:3 dilution, top dose 1 μM; 60 pM active p38a, 1 nM inactive MK2, 10 μM ATP, 2 h incubation; read-out: p38a/MK2 (1 μM) Enzyme pIC50 (converted)
p38a/PRAK = p38a/PRAK (Homo sapiens (Human), UniProt Q16539); test: p38a/PRAK biochemical assay: activation of PRAK by p38, FITC-HSP27 peptide phosphorylation (IMAP FP); details: 10-point 1:3 dilution, top dose 300 μM; 60 pM active p38a, 1 nM inactive PRAK, 10 μM ATP, 2 h incubation; read-out: p38a/PRAK Enzyme pIC50 (converted)
Procedure, shortened: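 GST-tagged MK2 (F46–H400) and PRAK (M1–Q471), expressed in E. coli, activated by p38 and phosphorylate FITC-HSP27 peptide over 2 h with compound; readout by IMAP fluorescence polarisation (ex 485/em 528 nm). Ten-point 1:3 dilutions, top dose 1 μM for MK2 and 300 μM for PRAK. IC50 after vehicle normalisation; selectivity = IC50(PRAK)/IC50(MK2).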

Sequence of p38a/MK2 (P49137 46-400): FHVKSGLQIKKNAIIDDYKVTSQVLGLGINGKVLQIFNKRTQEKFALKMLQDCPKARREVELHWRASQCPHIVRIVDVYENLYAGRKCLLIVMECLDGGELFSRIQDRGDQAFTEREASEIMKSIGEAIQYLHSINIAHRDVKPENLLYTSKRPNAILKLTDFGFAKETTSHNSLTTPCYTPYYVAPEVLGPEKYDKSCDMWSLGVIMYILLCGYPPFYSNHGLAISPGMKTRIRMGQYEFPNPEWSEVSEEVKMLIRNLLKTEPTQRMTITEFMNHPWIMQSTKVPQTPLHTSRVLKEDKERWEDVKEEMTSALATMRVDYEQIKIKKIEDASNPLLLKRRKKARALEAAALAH
Sequence of p38a/MK2 (Q16539 whole entry): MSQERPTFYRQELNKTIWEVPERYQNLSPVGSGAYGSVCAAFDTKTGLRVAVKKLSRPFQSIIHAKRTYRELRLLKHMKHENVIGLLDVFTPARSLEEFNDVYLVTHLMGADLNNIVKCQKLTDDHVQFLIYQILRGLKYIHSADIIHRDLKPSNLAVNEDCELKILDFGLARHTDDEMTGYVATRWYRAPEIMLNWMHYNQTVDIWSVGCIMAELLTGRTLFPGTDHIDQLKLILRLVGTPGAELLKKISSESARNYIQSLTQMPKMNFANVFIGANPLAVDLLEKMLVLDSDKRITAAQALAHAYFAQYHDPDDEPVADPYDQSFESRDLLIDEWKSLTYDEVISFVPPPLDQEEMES
Sequence of p38a/PRAK (Q16539 whole entry): as above

| Compound | IC50 (p38a/MK2) [nM] | IC50 (p38a/PRAK) [nM] |
| --- | --- | --- |
| Cc1cnc(-c2ccnc(C(C)(C)O)n2)c(F)c1-n1c(C)cc(OCc2ncc(F)cc2F)c(Cl)c1=O (single isomer, unassigned) [Example 53A, rel-3-chloro-4-[(3,5-difluoropyridin-2-yl)methoxy]-3′-fluoro-2′-[2-(2-hydroxypropan-2-yl)pyrimidin-4-yl]-5′,6-dimethyl-[1,4′-bipyridin]-2-one] | > 1000 | > 316000 |
| Cc1cnc(-c2ccnc(C(C)(C)O)n2)c(F)c1-n1c(C)cc(OCc2ncc(F)cc2F)c(Cl)c1=O (single isomer, unassigned) [Example 53B, rel-3-chloro-4-[(3,5-difluoropyridin-2-yl)methoxy]-3′-fluoro-2′-[2-(2-hydroxypropan-2-yl)pyrimidin-4-yl]-5′,6-dimethyl-[1,4′-bipyridin]-2-one] | 0.126 | 794 |
| Cc1cnc(-n2ccc(C(C)(C)O)n2)c(F)c1-n1c(C)cc(OCc2ncc(F)cc2F)c(Cl)c1=O (single isomer, unassigned) [Example 54A, rel-3-chloro-4-((3,5-difluoropyridin-2-yl)methoxy)-3′-fluoro-2′-(3-(2-hydroxypropan-2-yl)-1H-pyrazol-1-yl)-5′,6-dimethyl-2H-[1,4′-bipyridin]-2-one] | > 1000 | > 316000 |
| Cc1cnc(-n2ccc(C(C)(C)O)n2)c(F)c1-n1c(C)cc(OCc2ncc(F)cc2F)c(Cl)c1=O (single isomer, unassigned) [Example 54B, rel-3-chloro-4-((3,5-difluoropyridin-2-yl)methoxy)-3′-fluoro-2′-(3-(2-hydroxypropan-2-yl)-1H-pyrazol-1-yl)-5′,6-dimethyl-2H-[1,4′-bipyridin]-2-one] | 0.631 | 1580 |

Next, values leading:

| IC50 (p38a/MK2) [nM] | IC50 (p38a/PRAK) [nM] | Compound |
| --- | --- | --- |
| 1.26 | 794 | [2H]C([2H])(Oc1cc(C)n(-c2c(C)cnc(-c3ccnc(C(C)(C)O)n3)c2F)c(=O)c1Cl)c1ncc(F)cc1F (single isomer, unassigned) [Example 57A, rel-3-chloro-4-[(3,5-difluoropyridin-2-yl)(2H2)methoxy]-3′-fluoro-2′-[2-(2-hydroxypropan-2-yl)pyrimidin-4-yl]-5′,6-dimethyl-[1,4′-bipyridin]-2-one] |
| > 10 | 126000 | [2H]C([2H])(Oc1cc(C)n(-c2c(C)cnc(-c3ccnc(C(C)(C)O)n3)c2F)c(=O)c1Cl)c1ncc(F)cc1F (single isomer, unassigned) [Example 57B, rel-3-chloro-4-[(3,5-difluoropyridin-2-yl)(2H2)methoxy]-3′-fluoro-2′-[2-(2-hydroxypropan-2-yl)pyrimidin-4-yl]-5′,6-dimethyl-[1,4′-bipyridin]-2-one] |
| > 1000 | > 316000 | [2H]C([2H])(Oc1cc(C)n(-c2c(C)cnc(-c3ccnc(C(C)(C)CO)n3)c2F)c(=O)c1Cl)c1ncc(F)cc1F (single isomer, unassigned) [Example 59A, rel-3-chloro-4-((3,5-difluoropyridin-2-yl)methoxy-d2)-3′-fluoro-2′-(2-(1-hydroxy-2-methylpropan-2-yl)pyrimidin-4-yl)-5′,6-dimethyl-2H-[1,4′-bipyridin]-2-one] |
| 1 | 316 | [2H]C([2H])(Oc1cc(C)n(-c2c(C)cnc(-c3ccnc(C(C)(C)CO)n3)c2F)c(=O)c1Cl)c1ncc(F)cc1F (single isomer, unassigned) [Example 59B, rel-3-chloro-4-((3,5-difluoropyridin-2-yl)methoxy-d2)-3′-fluoro-2′-(2-(1-hydroxy-2-methylpropan-2-yl)pyrimidin-4-yl)-5′,6-dimethyl-2H-[1,4′-bipyridin]-2-one] |
| > 100 | 158000 | [2H]C([2H])(Oc1cc(C)n(-c2c(C)cnc(-c3ccnc(CC4(O)CC4)n3)c2F)c(=O)c1Cl)c1ncc(F)cc1F (single isomer, unassigned) [Example 61A, rel-3-chloro-4-((3,5-difluoropyridin-2-yl)methoxy-d2)-3′-fluoro-2′-(2-((1-hydroxycyclopropyl)methyl)pyrimidin-4-yl)-5′,6-dimethyl-2H-[1,4′-bipyridin]-2-one] |

— US11680056B2, “MK2 inhibitors and uses thereof” (Xinthera, Inc., priority 2021, dated 2023)
